Test [1] has as its system rat heart ischemia/reperfusion. Nature of the test: Myocardial ischemic preconditioning, isolated Langendorff hearts of chronically treated rats. The format is in vivo, Wistar rats. More on the design: DP: unit not given beside the values. Conditions: for DP / HR / WI: old rats; for WI: percent of value at end of stabilization. The method, then:
Four groups of male rats of the Wistar strain were used for these studies; a) 3-months old untreated; b) 22 months old, untreated; c) 22 months old treated from the age of 16 months by daily oral administration of ladostigil hemitartrate at a dose of 1 mg/kg/day (hereinafter “low dose”; d) 22 months old treated from the age of 16 months by daily oral administration of ladostigil hemitartrate at a dose of 8.5 mg/kg/day (hereinafter “high dose”).
On the day of the experiment, rats were injected with i.p. sodium heparin (500 units/kg) followed 30 min later by 80 mg/kg ketamine plus 5 mg/kg xylazine i.p. Bilateral thoracotomy was performed and hearts with a segment of the ascending aorta were rapidly excised, put in ice-cold heparinized saline and mounted onto the Langendorff apparatus. They were perfused with a modified Krebs-Henseleit (KH) buffer as described in Chevion et al. (1993). Heart rate (HR), developed pressure (DP), and its derivatives (+dp/dt and −dp/dt) were recorded. All primary data were processed using a customized version of LabView 7.1 software (National Instruments, Austin, Tex., USA). Work index (WI=Heart Rate×DP) was used as an indicator of heart contractility. The degree of cardio-protection was expressed by the percent (ratio) of two values: WI at the completion of the experiment (at the 120th min) and WI at the completion of the stabilization phase (at the 10th min).
Experimental protocol: Three basic experimental protocols were employed: (i) continuous (un-interrupted) perfusion: (ii) stabilization (25 min) followed by ischemia and reperfusion (35/60 min) (I/R), and (iii) stabilization (10 min) followed by IPC, ischemia and reperfusion (IPC+I/R). The hemodynamic parameters of the heart were monitored and recorded continuously throughout, during all experimental protocols. Under the I/R protocol, the stabilization phase was extended from 10 to 25 min to compensate for the 15 min of the IPC procedure, which consisted of 3 cycles of (2 min ischemia and 3 min perfusion).

A further test concerns the target T1, MAO-A (Rattus norvegicus, UniProt P21396).
T1 construct: from tissue; host or cells: heart of aged Wistar rats after chronic oral dosing
T1 sequence (P21396 1-526): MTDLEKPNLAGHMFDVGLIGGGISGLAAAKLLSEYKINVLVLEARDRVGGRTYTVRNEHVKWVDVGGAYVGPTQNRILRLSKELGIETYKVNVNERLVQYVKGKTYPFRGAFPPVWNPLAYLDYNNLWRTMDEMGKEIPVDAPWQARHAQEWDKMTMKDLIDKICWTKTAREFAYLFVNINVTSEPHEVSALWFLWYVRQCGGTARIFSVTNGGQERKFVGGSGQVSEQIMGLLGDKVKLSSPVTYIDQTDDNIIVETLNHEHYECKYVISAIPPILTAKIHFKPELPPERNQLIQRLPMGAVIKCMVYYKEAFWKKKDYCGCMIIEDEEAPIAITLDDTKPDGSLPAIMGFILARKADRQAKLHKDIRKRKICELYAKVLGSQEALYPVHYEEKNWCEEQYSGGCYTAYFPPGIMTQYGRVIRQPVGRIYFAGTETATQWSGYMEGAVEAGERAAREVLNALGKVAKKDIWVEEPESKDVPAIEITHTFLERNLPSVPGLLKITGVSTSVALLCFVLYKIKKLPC
Briefly: MAO-A activity in heart of treated rats. The format is in vivo. Conditions: read-out: MAO-A activity in the heart inhibited.

In another test the test system is ChE. Nature of the test: Cholinesterase inhibition in plasma and spleen of LPS injected mice (Example 5). The format is in vivo, Balb-C mice. Conditions: 120 min after oral administration; for Inhibition of ChE, plasma / Inhibition of ChE, spleen: LPS injected mice. Here is the method: In experiments on the effect of chronic treatment with ladostigil on ChE activity in mice drinking DSS, the spleen was rapidly removed as described above, together with a colon segment of about 0.5 cm in length taken from the proximal area. Spleen and colon segments were washed in cold phosphate buffered saline (PBS) before they were frozen at −80° C. For assay, the tissue was unfrozen and weighed and PBS was added to each tissue at a ratio of 1 mg tissue to 1 ml. Tissues were homogenized at a speed of 24,000 rpm in cold phosphate buffer pH 7 containing 0.1% Triton and centrifuged at 14000 rpm. Aliquots of plasma and the supernatant from the spleen and colon were incubated with acetylthiocholine and dinitro benzoic acid in phosphate buffer pH 7 and the rate of development of the yellow color was measured as described by Ellman et al, (1961). Percent inhibition of ChE activity was calculated by comparison with that of control mice given water by gavage. Protein concentration was determined by means of by Pierce BCA Protein Assay Kit (Thermo Scientific, USA) according to the manufacturer's instructions. It is noted, that ChE activity in the colon and spleen of mice is attributed mainly to that of AChE while that in mouse plasma is mainly attributable to BuChE.
For the LPS experiment involving a single administration, ladostigil (10 or 20 mg/kg) in a volume of 1 ml/100 g or water (1 ml/100 g) were given by gavage to groups of 6-8 Balb-C male mice weighing 24-30 g and LPS as described above. […] Blood was taken into heparinized tubes and centrifuged at 14000 rpm at room temperature for 4 min to provide plasma and the spleen was rapidly removed, weighed, frozen in liquid nitrogen and stored at −80° C. until assayed. It is noted, that ChE inhibition in mouse plasma is mainly attributed to BuChE activity, and in mouse spleen—mainly to AChE activity.
Percent inhibition of ChE activity was calculated by comparison with that of control mice given water by gavage as described in Example 1 above.

The mark [2] stands for this setting: IPC + I/R, high dose 8.5 mg/kg/day.
Where [3] appears, read: IPC + I/R, low dose 1 mg/kg/day.

Consider `C#CCN[C@@H]1CCc2ccc(OC(=O)N(C)CC)cc21` [Ladostigil, R(+)-6-(N-methyl, N-ethyl-carbamoyloxy)-N′-propargyl-1-aminoindan], for which the “Effect on WI after ischemia and 60 min reperfusion” value in test [1] (aging rats, I/R without IPC, either dose) is on record as “no significant effect”. Besides, the DP in test [1] (I/R, high dose 8.5 mg/kg/day) came out at 14 ± 6; in test [1] (I/R, low dose 1 mg/kg/day) it was 20 ± 10; in test [1] (setting [2]), 30 ± 12; in test [1] (setting [3]), 68 ± 15. For the same compound, the HR in test [1] (I/R, high dose 8.5 mg/kg/day) is on record as 83 ± 8; in test [1] (I/R, low dose 1 mg/kg/day), 67 ± 15; in test [1] (setting [2]), 92 ± 28; in test [1] (setting [3]) it was 77 ± 8. In addition, the WI in test [1] (I/R, high dose 8.5 mg/kg/day) is reported as 12 ± 5%; in test [1] (I/R, low dose 1 mg/kg/day), 13 ± 6%; in test [1] (IPC + I/R, high dose 8.5 mg/kg/day, 8.5 mg/kg/day) it was 26 ± 6%; in test [1] (IPC + I/R, high dose 8.5 mg/kg/day, listed as ladostigil, 8.5 mg/kg/day) it was “much smaller”; in test [1] (IPC + I/R, low dose 1 mg/kg/day, 1 mg/kg/day), 53 ± 12%; in test [1] (IPC + I/R, low dose 1 mg/kg/day, listed as ladostigil, 1 mg/kg/day), above 50%. In addition, at MAO-A, the inhibition at 8.5 mg/kg/day was in the range of 50 to 60%. The “Inhibition of ChE activity in plasma or spleen” value in the test on ChE (ladostigil 10 mg/kg) is reported as “did not significantly inhibit ChE activity”. The “Inhibition of ChE, plasma” value in the test with ChE (ladostigil 10 mg/kg) stood at 7.8 ± 2.4%; in the test with ChE (ladostigil 20 mg/kg), 27.4±5.9%. Also, the “Inhibition of ChE, spleen” value in the test on ChE (ladostigil 10 mg/kg) was found to be 15.1 ± 3.6%; in the test on ChE (ladostigil 20 mg/kg) it was 28.1 ± 1.9 %.

Values taken from patent US9867798B2, “Ladostigil therapy for immunomodulation” (priority 2012, dated 2018).
